For eight compounds, Ki, Activity and Km results are on record in ChEMBL document CHEMBL2074315, “Role of human organic anion transporter 4 in the transport of ochratoxin A” (Biochim Biophys Acta, 2002).

What all share (format): functional, cell-based
Data set [1] concerns the target T1, Solute carrier family 22 member 11 (Homo sapiens, UniProt Q9NSA0).
T1 sequence (Q9NSA0 whole entry): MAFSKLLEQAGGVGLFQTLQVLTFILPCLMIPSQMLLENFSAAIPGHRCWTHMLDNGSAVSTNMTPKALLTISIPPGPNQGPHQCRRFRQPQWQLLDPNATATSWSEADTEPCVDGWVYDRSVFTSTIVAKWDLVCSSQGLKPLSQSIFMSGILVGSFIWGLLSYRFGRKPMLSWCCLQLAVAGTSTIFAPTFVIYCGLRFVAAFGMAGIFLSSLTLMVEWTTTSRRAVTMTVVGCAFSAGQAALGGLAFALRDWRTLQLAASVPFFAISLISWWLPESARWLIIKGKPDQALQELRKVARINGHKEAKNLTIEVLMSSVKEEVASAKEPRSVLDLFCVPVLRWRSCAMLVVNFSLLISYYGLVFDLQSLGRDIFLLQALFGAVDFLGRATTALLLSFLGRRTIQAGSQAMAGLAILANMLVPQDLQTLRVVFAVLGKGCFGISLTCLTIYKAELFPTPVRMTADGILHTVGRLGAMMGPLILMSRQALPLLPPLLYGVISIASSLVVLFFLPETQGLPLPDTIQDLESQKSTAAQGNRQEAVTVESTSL
Nature of the data set: TP_TRANSPORTER: inhibition of Ochratoxin A uptake in OAT4-expressing S2 cells.

For data set [2], the target named is T1, Solute carrier family 22 member 11. Nature of the data set: TP_TRANSPORTER: inhibition of Ochratoxin A uptake (OTA: 1 uM, Indomethacin: 200 uM) in OAT4-expressing S2 cells. As to conditions: mouse, s2, 200 µM.
For data set [3] the target is unchanged. The data set can be described thus: TP_TRANSPORTER: inhibition of Ochratoxin A uptake (OTA: 1 uM, PCG: 200 uM) in OAT4-expressing S2 cells. As to conditions: s2, 200 µM.
Data set [4] shares this target. The data set can be described thus: TP_TRANSPORTER: inhibition of Ochratoxin A uptake (OTA: 1 uM, PAH: 200 uM) in OAT4-expressing S2 cells. As to conditions: mouse, s2, 200 µM.
Data set [5] has as its target T2, OAT4 (SLC22A11, solute carrier family 22 member 11) (Homo sapiens, UniProt Q9NSA0).
T2 sequence (Q9NSA0 whole entry): T1 sequence (Q9NSA0 whole entry)
The data set can be described thus: TP_TRANSPORTER: uptake in OAT4-expressing S2 cells.

Data set [6] addresses T1, Solute carrier family 22 member 11. Nature of the data set: TP_TRANSPORTER: inhibition of Ochratoxin A uptake (OTA: 1 uM, Aspartame: 200 uM) in OAT4-expressing S2 cells. As to conditions: s2, 200 µM.

The term Ki denotes the dissociation constant of the complex between target and ligand, obtained from inhibition or displacement. As usually defined, the Km is the substrate concentration at which the rate is half of its maximum.

`CCCCCCCC(=O)O` [OCTANOIC ACID] yielded an inhibition constant Ki in data set [1] of 236 µM. For `CN1C(C(=O)Nc2ccccn2)=C(O)c2ccccc2S1(=O)=O` [PIROXICAM], in data set [1], the inhibitory constant (Ki) came to 108 µM. Compared with the last compound, the Ki is about 2.2-fold lower.

As for `COc1ccc2c(c1)c(CC(=O)O)c(C)n2C(=O)c1ccc(Cl)cc1` [INDOMETHACIN], in data set [2], the Activity entry is “inhibitor [(at a rough estimate) 75 % of control]”. With `CC1(C)S[C@@H]2[C@H](NC(=O)Cc3ccccc3)C(=O)N2[C@H]1C(=O)O` [PENICILLIN G], the Activity result in data set [3] is “inhibitor [(at a rough estimate) 20 % of control]”. Consider `Nc1ccc(C(=O)NCC(=O)O)cc1` [AMINOHIPPURIC ACID], for which the Activity entry in data set [4] is “is not an inhibitor [-]”. Turning to `C[C@@H]1Cc2c(Cl)cc(C(=O)N[C@@H](Cc3ccccc3)C(=O)O)c(O)c2C(=O)O1` [3R14S-OCHRATOXIN A], in data set [5], the Km stood at 22.9 µM. The compound `CC1=C2C(=CO[C@H](C)[C@H]2C)C(O)=C(C(=O)O)C1=O` [CITRININ] gave a Ki in data set [1] of 366 µM.

With `COC(=O)[C@H](Cc1ccccc1)NC(=O)[C@@H](N)CC(=O)O`, the Activity entry in data set [6] is “inhibitor [(at a rough estimate) 80 % of control]”.
